Earlier results on four molecules are cited in patent publication US20050171207A1, “Method and composition for combination treatment of neurodegenerative disorders” (Myriad Genetics, Incorporated, priority 2003, published 2005).

Series [1] has as its system mild-to-moderate AD. The settings on record: rofecoxib at 25 mg daily; naproxen in the same trial.
Series [2] concerns Aβ42. The settings on record: transgenic mouse model.
Series [3] relates to pain related chemo-somatosensory evoked potentials. The settings on record: 50 mg and 100 mg doses, human subjects.
In series [4] the test system is COX.
Series [5] relates to Aβ42. The settings on record: CHO cells.
In series [6] the test system is mild-to-moderate AD. The settings on record: in vivo.
Series [7] relates to Alzheimer's disease excitotoxic model. The settings on record: in vivo Alzheimer's disease excitotoxic model system.

Like-named read-outs stand apart in the source and are kept apart here.

On to `COc1ccc2cc([C@H](C)C(=O)O)ccc2c1` [Naproxen], for which the “efficacy for treating AD” value in series [1] is reported as “failed to show efficacy”.

As to `C[C@@H](C(=O)O)c1ccc(-c2ccccc2)c(F)c1` [R-flurbiprofen], the Aβ42 lowering result in series [2] and in series [5] was “lower Aβ42” each time. The analgesic effect entry in series [3] is “produced an analgesic effect”. Besides, the “inhibition of COX activity” value in series [4] is given as “negligibly inhibits COX activity”.

As for `CC12CC3CC(C)(C1)CC(N)(C3)C2` [memantine], the “efficacy in treating mild-to-moderate AD” value in series [6] is recorded as “showed efficacy”.

With `CS(=O)(=O)c1ccc(C2=C(c3ccccc3)C(=O)OC2)cc1` [rofecoxib], the “efficacy for treating AD” value in series [1] is “failed to show efficacy”. Moreover, the neuroprotection entry in series [7] was “provides neuroprotection”.
